Data published in BindingDB's records for doi:10.1021/acschembio.6b00012 (Broad Institute, 2016).

Tests used:
Assay in all cases: HDAC Enzymatic Assay
Settings in all cases: pH 7.4
Histone deacetylase 9 = Histone deacetylase 9 (Homo sapiens, UniProt Q9UKV0)
Protocol: (§1) Briefly, this fluorogenic assays uses an acetylated lysine tripeptide substrate, amide-linked to a fluorescently quenched aminocoumarin (AMC). Enzyme reactions were run in 50 mM HEPES, 100 mM KCl, 0.001% (v/v) Tween-20, 0.05% (w/v) BSA, pH 7.4. The appropriate substrate concentration for each HDAC was determined using their corresponding Km values. Km values were determined by monitoring the increase of fluorescence of each HDAC at varying substrate concentrations. The increase in fluorescence units was plotted versus substrate concentration. Assays corresponding to HDACs 4, 5, 7, 8, 9 involved a trifluoroacetylated lysine substrate as described in Bradner et al, while HDACs 1, 2, 3, and 6 used an acetyl-Leu-Gly-acetyl-Lys tripeptide as the substrate. Reactions were carriedout in 384-well plates and fluorescence was measured using a multi-label plate reader and plate stacker (Envision, Perkin-Elmer).

Histone deacetylase 5 = Histone deacetylase 5 (Homo sapiens, UniProt Q9UQL6)
Chain of Histone deacetylase 5 (Q9UQL6 whole entry): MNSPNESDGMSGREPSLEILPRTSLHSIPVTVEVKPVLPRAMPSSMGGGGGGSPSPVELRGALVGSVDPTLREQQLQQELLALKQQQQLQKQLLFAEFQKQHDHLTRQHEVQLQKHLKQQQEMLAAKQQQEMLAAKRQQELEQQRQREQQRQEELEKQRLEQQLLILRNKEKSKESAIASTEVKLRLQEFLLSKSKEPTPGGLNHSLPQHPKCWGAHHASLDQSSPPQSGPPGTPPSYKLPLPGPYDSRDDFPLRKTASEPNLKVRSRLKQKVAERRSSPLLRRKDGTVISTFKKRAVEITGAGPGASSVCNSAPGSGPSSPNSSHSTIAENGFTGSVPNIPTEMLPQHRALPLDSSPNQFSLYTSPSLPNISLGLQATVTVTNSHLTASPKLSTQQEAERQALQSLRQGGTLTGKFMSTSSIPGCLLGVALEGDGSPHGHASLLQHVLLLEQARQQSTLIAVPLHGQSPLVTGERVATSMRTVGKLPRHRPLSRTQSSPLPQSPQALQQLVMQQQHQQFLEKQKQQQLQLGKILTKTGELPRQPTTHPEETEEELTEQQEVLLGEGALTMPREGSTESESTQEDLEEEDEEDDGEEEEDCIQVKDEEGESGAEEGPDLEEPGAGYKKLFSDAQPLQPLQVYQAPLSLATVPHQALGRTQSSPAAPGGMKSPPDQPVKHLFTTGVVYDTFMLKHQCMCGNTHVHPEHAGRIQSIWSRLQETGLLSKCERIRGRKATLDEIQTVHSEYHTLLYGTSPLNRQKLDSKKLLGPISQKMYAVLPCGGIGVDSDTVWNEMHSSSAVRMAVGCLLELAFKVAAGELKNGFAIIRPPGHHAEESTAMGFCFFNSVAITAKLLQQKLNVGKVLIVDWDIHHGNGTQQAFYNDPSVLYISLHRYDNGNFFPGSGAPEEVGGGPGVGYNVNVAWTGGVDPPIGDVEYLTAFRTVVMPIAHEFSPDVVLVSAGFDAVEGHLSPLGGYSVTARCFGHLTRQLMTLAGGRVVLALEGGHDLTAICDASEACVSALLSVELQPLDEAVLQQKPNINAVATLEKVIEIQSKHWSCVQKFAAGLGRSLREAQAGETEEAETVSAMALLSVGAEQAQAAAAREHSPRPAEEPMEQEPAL
Protocol: as §1

[1] = molecular target: Histone deacetylase 8 [R223M] (Homo sapiens, UniProt Q9BY41, R223M)
Chain of Histone deacetylase 8 [R223M] (Q9BY41 whole entry R223W): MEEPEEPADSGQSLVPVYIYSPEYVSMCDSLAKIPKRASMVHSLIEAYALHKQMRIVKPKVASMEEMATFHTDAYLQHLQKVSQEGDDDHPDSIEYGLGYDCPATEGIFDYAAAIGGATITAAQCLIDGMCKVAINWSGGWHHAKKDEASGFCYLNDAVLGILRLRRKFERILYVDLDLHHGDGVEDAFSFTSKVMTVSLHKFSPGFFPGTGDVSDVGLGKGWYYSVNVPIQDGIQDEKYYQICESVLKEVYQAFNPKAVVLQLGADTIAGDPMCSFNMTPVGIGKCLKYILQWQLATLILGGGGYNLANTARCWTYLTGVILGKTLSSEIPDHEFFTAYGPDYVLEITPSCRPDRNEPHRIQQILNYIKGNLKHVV
Protocol: as §1

Histone deacetylase 3 = Histone deacetylase 3 (Homo sapiens, UniProt O15379)
Chain of Histone deacetylase 3 (O15379 whole entry): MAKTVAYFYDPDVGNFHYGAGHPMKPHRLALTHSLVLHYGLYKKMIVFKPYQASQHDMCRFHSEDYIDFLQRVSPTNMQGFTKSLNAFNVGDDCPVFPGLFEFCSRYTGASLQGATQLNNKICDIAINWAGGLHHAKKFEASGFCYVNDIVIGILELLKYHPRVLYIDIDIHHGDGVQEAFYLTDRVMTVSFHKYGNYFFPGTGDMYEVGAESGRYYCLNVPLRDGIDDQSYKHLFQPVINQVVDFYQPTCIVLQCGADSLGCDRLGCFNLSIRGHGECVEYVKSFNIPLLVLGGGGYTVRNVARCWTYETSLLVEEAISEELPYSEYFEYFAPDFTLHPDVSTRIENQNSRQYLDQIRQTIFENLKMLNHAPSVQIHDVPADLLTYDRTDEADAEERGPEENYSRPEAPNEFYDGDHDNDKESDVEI
Protocol: as §1

Histone deacetylase 1 = Histone deacetylase 1 (Homo sapiens, UniProt Q13547)
Chain of Histone deacetylase 1 (Q13547 whole entry): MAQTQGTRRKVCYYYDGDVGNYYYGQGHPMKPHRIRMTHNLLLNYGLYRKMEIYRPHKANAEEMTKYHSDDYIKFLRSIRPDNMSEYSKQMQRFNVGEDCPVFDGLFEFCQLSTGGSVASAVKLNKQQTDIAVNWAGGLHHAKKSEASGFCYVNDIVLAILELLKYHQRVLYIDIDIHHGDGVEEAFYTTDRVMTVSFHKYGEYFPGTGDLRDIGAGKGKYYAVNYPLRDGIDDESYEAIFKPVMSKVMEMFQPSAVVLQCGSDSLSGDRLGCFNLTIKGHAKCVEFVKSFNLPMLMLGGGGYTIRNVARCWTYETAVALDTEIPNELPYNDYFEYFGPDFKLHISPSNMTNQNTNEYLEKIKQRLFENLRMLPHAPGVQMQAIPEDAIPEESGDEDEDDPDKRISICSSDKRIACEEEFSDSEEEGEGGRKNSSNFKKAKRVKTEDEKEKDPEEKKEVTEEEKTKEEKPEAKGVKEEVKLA
Protocol: as §1

Histone deacetylase 7 = molecular target: T1, Histone deacetylase 7 (Homo sapiens, UniProt Q8WUI4)
T1 sequence (Q8WUI4 whole entry): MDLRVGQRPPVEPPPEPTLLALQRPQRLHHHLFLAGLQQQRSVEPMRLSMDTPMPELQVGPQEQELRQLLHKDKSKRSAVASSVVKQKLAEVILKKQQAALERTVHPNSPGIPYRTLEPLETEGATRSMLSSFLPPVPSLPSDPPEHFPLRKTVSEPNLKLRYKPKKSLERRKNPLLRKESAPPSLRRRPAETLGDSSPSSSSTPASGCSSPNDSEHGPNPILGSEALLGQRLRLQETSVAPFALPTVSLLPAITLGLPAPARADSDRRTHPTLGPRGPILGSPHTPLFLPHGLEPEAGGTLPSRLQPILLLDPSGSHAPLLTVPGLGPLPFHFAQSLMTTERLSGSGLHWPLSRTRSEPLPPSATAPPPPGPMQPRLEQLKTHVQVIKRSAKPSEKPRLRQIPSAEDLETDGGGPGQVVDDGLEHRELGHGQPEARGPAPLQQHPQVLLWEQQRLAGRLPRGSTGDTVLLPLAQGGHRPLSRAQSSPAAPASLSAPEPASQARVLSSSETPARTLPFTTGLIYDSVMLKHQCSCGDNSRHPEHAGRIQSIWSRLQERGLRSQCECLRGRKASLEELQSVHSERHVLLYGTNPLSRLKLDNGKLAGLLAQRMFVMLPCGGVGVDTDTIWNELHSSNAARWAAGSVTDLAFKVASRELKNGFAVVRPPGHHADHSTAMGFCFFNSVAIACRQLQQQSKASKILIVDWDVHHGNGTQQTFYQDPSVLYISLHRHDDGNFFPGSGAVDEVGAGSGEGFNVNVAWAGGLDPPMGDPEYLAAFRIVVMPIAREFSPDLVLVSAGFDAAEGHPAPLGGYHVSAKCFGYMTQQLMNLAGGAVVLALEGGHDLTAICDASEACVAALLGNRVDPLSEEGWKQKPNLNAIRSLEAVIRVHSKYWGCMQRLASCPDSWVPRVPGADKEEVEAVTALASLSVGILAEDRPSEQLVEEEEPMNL
Protocol: as §1

Histone deacetylase 4 = Histone deacetylase 4 (Homo sapiens, UniProt P56524)
Chain of Histone deacetylase 4 (P56524 whole entry): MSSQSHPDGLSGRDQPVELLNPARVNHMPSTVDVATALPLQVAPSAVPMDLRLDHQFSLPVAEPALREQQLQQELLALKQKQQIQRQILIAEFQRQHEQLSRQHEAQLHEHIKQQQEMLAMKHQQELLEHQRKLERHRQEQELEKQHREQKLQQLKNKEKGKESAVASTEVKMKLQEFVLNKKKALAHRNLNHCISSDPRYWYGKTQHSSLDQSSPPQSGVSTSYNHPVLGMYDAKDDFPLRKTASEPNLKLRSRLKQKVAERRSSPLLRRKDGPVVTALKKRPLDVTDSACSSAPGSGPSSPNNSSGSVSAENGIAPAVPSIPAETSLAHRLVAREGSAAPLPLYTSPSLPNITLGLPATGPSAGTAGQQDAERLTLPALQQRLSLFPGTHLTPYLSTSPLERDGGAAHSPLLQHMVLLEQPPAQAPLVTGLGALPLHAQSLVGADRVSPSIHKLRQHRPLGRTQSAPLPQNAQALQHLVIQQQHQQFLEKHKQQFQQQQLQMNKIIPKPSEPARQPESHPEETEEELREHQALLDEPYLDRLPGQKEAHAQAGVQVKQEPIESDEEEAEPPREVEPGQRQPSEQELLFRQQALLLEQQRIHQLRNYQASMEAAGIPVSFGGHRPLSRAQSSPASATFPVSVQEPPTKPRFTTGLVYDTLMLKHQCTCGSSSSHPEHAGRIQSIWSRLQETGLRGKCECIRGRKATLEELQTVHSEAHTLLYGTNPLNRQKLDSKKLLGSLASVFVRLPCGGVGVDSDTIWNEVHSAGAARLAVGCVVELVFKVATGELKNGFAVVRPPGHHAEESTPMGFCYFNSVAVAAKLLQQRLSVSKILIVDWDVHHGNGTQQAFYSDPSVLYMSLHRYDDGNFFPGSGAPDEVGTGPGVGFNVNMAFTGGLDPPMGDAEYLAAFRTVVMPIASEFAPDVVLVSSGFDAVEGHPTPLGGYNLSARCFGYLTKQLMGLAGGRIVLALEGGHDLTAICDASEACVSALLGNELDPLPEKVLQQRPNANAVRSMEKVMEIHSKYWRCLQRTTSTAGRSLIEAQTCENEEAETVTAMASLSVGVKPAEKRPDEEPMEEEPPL
Protocol: as §1

Histone deacetylase 2 = Histone deacetylase 2 (Homo sapiens, UniProt Q92769)
Chain of Histone deacetylase 2 (Q92769 whole entry): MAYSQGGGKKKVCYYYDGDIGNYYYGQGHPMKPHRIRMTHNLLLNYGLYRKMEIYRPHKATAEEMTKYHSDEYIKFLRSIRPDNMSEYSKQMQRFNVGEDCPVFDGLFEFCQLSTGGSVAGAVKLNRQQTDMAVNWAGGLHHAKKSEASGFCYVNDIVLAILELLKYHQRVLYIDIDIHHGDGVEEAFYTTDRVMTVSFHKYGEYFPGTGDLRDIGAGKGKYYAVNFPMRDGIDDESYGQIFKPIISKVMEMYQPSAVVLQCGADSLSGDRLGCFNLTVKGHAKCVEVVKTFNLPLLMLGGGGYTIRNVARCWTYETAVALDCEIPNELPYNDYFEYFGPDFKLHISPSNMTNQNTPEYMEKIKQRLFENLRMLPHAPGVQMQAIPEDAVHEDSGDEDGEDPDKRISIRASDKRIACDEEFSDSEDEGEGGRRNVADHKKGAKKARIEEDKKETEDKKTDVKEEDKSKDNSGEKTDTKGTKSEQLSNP
Protocol: as §1

Chain of Histone deacetylase 9 (Q9UKV0 whole entry): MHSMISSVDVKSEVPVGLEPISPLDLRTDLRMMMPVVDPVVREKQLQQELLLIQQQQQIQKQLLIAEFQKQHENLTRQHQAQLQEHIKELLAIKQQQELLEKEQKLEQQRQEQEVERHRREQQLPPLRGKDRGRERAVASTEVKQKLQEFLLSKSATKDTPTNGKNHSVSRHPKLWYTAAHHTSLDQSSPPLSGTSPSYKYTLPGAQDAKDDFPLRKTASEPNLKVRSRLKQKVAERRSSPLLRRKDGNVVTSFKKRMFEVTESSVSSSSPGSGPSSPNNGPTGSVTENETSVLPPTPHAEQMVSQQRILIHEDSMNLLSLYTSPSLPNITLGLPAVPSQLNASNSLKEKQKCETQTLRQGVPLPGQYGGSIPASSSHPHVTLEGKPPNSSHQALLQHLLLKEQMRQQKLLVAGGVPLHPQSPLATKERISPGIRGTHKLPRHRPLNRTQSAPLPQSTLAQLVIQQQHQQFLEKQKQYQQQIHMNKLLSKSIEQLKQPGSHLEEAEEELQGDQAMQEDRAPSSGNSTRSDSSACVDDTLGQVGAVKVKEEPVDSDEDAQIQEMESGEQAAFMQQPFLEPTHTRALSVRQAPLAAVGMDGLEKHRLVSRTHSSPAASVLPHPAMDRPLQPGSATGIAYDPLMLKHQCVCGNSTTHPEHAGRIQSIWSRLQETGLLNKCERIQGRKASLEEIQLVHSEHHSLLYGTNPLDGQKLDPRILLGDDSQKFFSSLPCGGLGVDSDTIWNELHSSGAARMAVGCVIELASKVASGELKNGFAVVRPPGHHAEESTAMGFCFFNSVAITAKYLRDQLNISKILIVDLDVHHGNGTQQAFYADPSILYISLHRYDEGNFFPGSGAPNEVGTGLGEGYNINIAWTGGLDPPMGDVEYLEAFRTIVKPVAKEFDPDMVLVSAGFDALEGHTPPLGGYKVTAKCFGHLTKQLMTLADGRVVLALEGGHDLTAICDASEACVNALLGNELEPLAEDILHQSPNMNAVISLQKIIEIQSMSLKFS

IC50 (Histone deacetylase 9): 1880 nM
IC50 (Histone deacetylase 5): 850 nM
IC50 [1]: 3.89 µM
IC50 (Histone deacetylase 3): 65.1 µM
IC50 (Histone deacetylase 1): 40.4 µM
IC50 (Histone deacetylase 7): 8.44 µM
IC50 (Histone deacetylase 4): 13.8 µM
IC50 (Histone deacetylase 2): 67.2 µM
SMILES: CCN1CCN(C(c2cccnc2)c2cc(Cl)c3cccnc3c2O)CC1 (stereo not drawn) [5-chloranyl-7-[(4-ethylpiperazin-1-yl)-pyridin-3-yl-methyl]quinolin-8-ol]
